Three compounds from US20050203063A1, “Proteasome pathway inhibitors and related methods” (priority 2003, published 2005) can be followed below.

The test system of assay [1] is cyclin-luciferase (cyc-luc) turnover, activated APC/C. The experiment in a line: cyc-luc turnover in mitotic Xenopus extracts (pre-treated with non-degradable cyclin B). The format is biochemical. To be noted: 200 μM compound; extracts in mitosis before addition of compound. How it is done: (§1) FIG. 1. Functional classification of inhibitors. Compounds that scored in the initial screen were reacquired as dry powders and retested in Xenopus extracts in 4 assays at 200 μM concentration (32) as described (6). […] (A) Compounds and cyclin-luciferase were added to interphase extracts, which were then induced to enter mitosis by addition of non-degradable cyclin B. Percent inhibition of cyc-luc turnover by each compound is coded according to the grayscale shown at the bottom of the figure; specific values are available in Table 1. (B) Extracts were pre-treated with non-degradable cyclin B to allow entry into mitosis prior to addition of test compound and reporter protein. (C) Interphase extracts were treated by addition of recombinant Cdh1 to activate cyc-luc turnover. (D) Interphase extracts were treated with recombinant axin to induce turnover of β-catenin-luciferase.
(§2) The “Cmpd” column corresponds to the numbers used in FIG. 1; “Class” refers to the class of inhibitor described in FIG. 1 and the text. Columns A-D show percent inhibition in the four assays described in FIG. 1. (A) Interphase extracts (B) Mitotic extracts (C) Interphase extracts stimulated with Cdh1 (D) Degradation of a β-catenin reporter protein in interphase extracts stimulated with recombinant axin. […] “ID#” refers to the identification number of the inhibitor obtained from the NCI (prefaced by NSC) or Chembridge (prefaced by C).
(§3) Dry compounds were redissolved at 20 mM concentration in DMSO, or a 50:50 water:DMSO mixture in certain cases. These compounds were then diluted ten-fold in XB and mixed thoroughly. For the assay in FIG. 1A, chilled interphase extract was mixed with cyclin BΔ90 (10 μg/ml) and cyc-luc (0.1 μg/ml) in bulk and then 27 μl of extract was pipetted to each well of a chilled 384-well plate. Three microliters of each compound (diluted in XB) was then added to each well, and then compounds mixed thoroughly. Plates were warmed to room temperature. After 70 minutes, 5 μl aliquots were transferred to another plate, and then 30 μl of luciferin reagent was added to each well and luminescence measured. Percent inhibition was calculated as described above. The reported values represent the average of three independent measurments. For the assay in FIG. 1B, interphase extracts were treated with 10 μg/cyclin B 90 for 50 minutes at room temperature and then chilled on ice. Cyc-luc was then added, and then 27 μl of extract was pipetted to each well of a chilled 384-well plate. Three microliters of each compound (diluted in XB) was then added to each well, and then compounds mixed thoroughly. Plates were warmed to room temperature. After 60 minutes, 5 μl aliquots were transferred to another plate, and then 30 μl of luciferin reagent was added to each well and luminescence measured. For the assay in FIG. 1C, recombinant Cdh1 (0.1 μg/ml) and cyc-luc were added to chilled interphase extracts. Extracts were then pipetted and compounds added as above. Plates were warmed to room temperature and incubated for three hours, following which luminescence was measured as above. For the assay in FIG. 1D, chilled interphase extracts received recombinant axin and beta-catenin-luciferase reporter as described (8). Extracts were aliquoted to chilled plates and compounds distributed as described above. Plates were warmed to room temperature, incubated for three hours, and luminescence measured.

Assay [2] has as its system 26S proteasomes. Put plainly: Deubiquitination of UbSic1 by epoxomicin-treated purified 26S proteasomes. The format is biochemical, S. cerevisiae. To be noted: 100 μM test compound, 100 μM epoxomicin. How it is done:
FIG. 2. […] (A) Degradation of UbSic1. Purified 26S proteasomes were preincubated in the presence or absence of test compounds. UbSic1 was then added, and degradation assayed as described (6). Py mock refers to the pyridine solvent in which C23 was dissolved which was marginally inhibitory, unlike the 50% DMSO vehicle used for other test compounds. (B) Deubiquitination of UbSic1. […] UbSic1 was then added, and deubiquitination was assayed as described (6). (C) Titration curve with varying concentrations of C92 to determine half-maximal inhibition of deubiquitination. (D) C92 inhibits binding of UbSic1 to 26S proteasomes. Purified 26S proteasomes immobilized on anti-Flag beads were incubated with UbSic1 in the presence or absence of C92 as described (6). Following binding, beads were washed and analyzed by immunoblotting with anti-Sic1 polyclonal serum. (E) Binding of UbSic1 to the polyUb binding proteins Rpn10 and Rad23 is inhibited by C92. Recombinant Gst-Rpn10 and Gst-Rad23 (1 μg each) were immobilized on glutathione sepharose beads and then incubated with UbSic1 in the presence or absence of C92. Following binding, beads were washed and analyzed by immunoblotting. (F) C92 interacts with multiUb chains. Equivalent amounts (5 μg) of purified Gst, Gst-fusion protein or multiUb chains were incubated with C92 or C1 before being loaded on a 5% native polyacryamide gel. Electrophoresis was performed as described (33). (G) C92 and C59 interact specifically with K48-linked Ub on native gels. Ub (16 μM), K48-linked diUb (8 μM), or tetraUb chains (8 μM) were preincubated with a two fold-molar excess (monoUb and diUb), or equivalent amounts (tetraUb) of test compounds before being resolved on native gels as in (G). Tetra K29Ub, K48Ub, and K63Ub refer to tetraubiquitin chains wherein the ubiquitins are linked via K29, K48, or K63.
FIG. 5. […] Assays were performed and evaluated as summarized in the legend to FIG. 2B. The metal chelating reagent phenanthroline is designated as “P”, and “Py” refers to the pyridine solvent that is used as the solvent for C23. (B) Titration curve for C59. (C) Inhibition of binding of ubiquitin conjugates to Gst-Rpn10 by C92 and C59, but not other compounds. The experiment was performed as described for FIG. 2E.
(§4) 26S proteasomes were purified from S. cerevisiae cells expressing a Flag-tagged proteasomal subunit (PRE1) essentially as described (28).
Reactions were processed as above.

In assay [3] the test system is Cdh1-stimulated cyc-luc proteolysis (APC/C). Put plainly: cyc-luc turnover in interphase Xenopus extracts stimulated with recombinant Cdh1. The format is biochemical. The following applies: 200 μM compound; negative values reflect stimulation of proteolysis. How it is done: as §1, §2, §3
Assay [4] concerns β-catenin-luciferase turnover (substrate of the SCFβ-TRCP ubiquitin ligase). Put plainly: β-catenin-luciferase turnover in interphase Xenopus extracts stimulated with recombinant axin. The format is biochemical. To be noted: 200 μM compound. How it is done:
as §1, §2, §3

Assay [5] has as its target T1, 20S core peptidase activity (Saccharomyces cerevisiae, UniProt P25043+P30656+P38624).
T1 construct: made in house; host or cells: S. cerevisiae cells expressing Flag-tagged PRE1
Put plainly: 20S core peptidase activity in native gel with fluorescent substrate. The format is biochemical. The method, then:
FIG. 6. […] (A) Purified 26S proteasomes were preincubated with test compounds before being resolved on a native gel. Following electrophoresis, the gel was stained with Coomassie Blue. […] Same as (A), except that following electrophoresis, the gel was incubated with fluorescent substrate to determine peptidase activity, which was visualized using a UV transilluminator (9). […] (C) Untreated 26S proteasomes were resolved on a native gel. Following electrophoresis, the gel was incubated with the peptidase substrate in the presence of ubistatin.
as §4

“Also recorded” adds a separate entry of the source. Read-outs that look alike come from different tables or passages of the source.

As for `CC(=O)Nc1ccc(SSc2ccc(NC(C)=O)c3cccnc23)c2ncccc12` [Compound 23], the “percent inhibition of cyc-luc turnover, (B) Mitotic extracts” value (“percent inhibition … (B) Mitotic extracts” below) in assay [1] stood at 100%. The “inhibition of deubiquitination of UbSic1 (in words)” value (shortened to “inhibition … (in words)”) in assay [2] (listed as C23) is recorded as “marginal inhibition; also recorded: inhibited marginally”. In addition, the “percent inhibition of cyc-luc turnover, (C) Interphase extracts stimulated with Cdh1” value (“percent inhibition … with Cdh1” for short) in assay [3] was determined as 100%. Besides, in assay [4], the “percent inhibition, (D) Degradation of a β-catenin reporter protein in interphase extracts stimulated with recombinant axin” value (shortened to “percent inhibition, (D) Degradation”) was determined as 27%. In assay [5], the “effect on 20S core peptidase activity” value is on record as “without effect”.
In the case of `O=S(=O)(O)c1ccc2cc3c(cc2c1)NN(c1ccc(/C=C/c2ccc(N4Nc5cc6ccc(S(=O)(=O)O)cc6cc5N4)cc2S(=O)(=O)O)c(S(=O)(=O)O)c1)N3` [Compound 59], the “percent inhibition … (B) Mitotic extracts” value in assay [1] is 100%. In addition, the “inhibition … (in words)” value in assay [2] was “Complete inhibition”. In addition, the “percent inhibition … with Cdh1” value in assay [3] turned out to be 100%. Besides, in assay [4], the “percent inhibition, (D) Degradation” value amounted to 70%. Further, in assay [5], the “effect on 20S core peptidase activity” value is given as “without affecting”.
Take `O=C(Nc1ccc(/C=C/c2ccc(NC(=O)c3cc(S(=O)(=O)O)c4cccnc4c3O)cc2S(=O)(=O)O)c(S(=O)(=O)O)c1)c1cc(S(=O)(=O)O)c2cccnc2c1O` [Compound 92]: the “percent inhibition … (B) Mitotic extracts” value in assay [1] was found to be 22%. In addition, the “inhibition … (in words)” value in assay [2] is recorded as “completely blocked”. The “percent inhibition … with Cdh1” value in assay [3] was found to be 65%. Further, in assay [4], the “percent inhibition, (D) Degradation” value is 21%. In assay [5] (listed as C92), the “effect on 20S core peptidase activity” value is recorded as “does not affect; also recorded: without affecting”.
